These results are taken from ChEMBL document CHEMBL1777698, “Synthesis and biological evaluation of unique stereodimers of sinomenine analogues as potential inhibitors of NO production” (Bioorg Med Chem, 2011).

In series [1] the test system is RAW264.7. In words: Inhibition of LPS-induced iNOS mRNA expression in mouse RAW264.7 cells by RT-PCR analysis. Type of series: functional, cell-based.
Series [2] relates to RAW264.7. In words: Cytotoxicity against mouse RAW264.7 cells after 24 hrs by MTT assay. Type of series: cell-based. A general note: Tetrazolium dyes change colour on reduction, which living cells bring about.
For series [3], the system named is RAW264.7. In words: Inhibition of LPS-induced nitric oxide production in mouse RAW264.7 cells at 100 uM after 24 hrs by Griess reaction relative to control. In kind it is functional. The following applies: for inhibition at 100 µM: Mus musculus, RAW264.7, 24 h. In general terms: Nitrite, measured by Griess reagent, commonly stands in for NO production.
Series [4] has as its system RAW264.7. The experiment in a line: Inhibition of LPS-induced nitric oxide production in mouse RAW264.7 cells at 50 uM after 24 hrs by Griess reaction relative to control. Type of series: functional. As to conditions: for inhibition at 50 µM: Mus musculus, RAW264.7, 24 h.
Series [5] relates to RAW264.7. In words: Inhibition of LPS-induced nitric oxide production in mouse RAW264.7 cells at 25 uM after 24 hrs by Griess reaction relative to control. In kind it is functional. The following applies: for inhibition at 25 µM: Mus musculus, RAW264.7, 24 h.
Series [6] concerns RAW264.7. In words: Inhibition of LPS-induced nitric oxide production in mouse RAW264.7 cells at 12.5 uM after 24 hrs by Griess reaction relative to control. In kind it is functional.
Series [7] relates to RAW264.7. The experiment in a line: Inhibition of LPS-induced nitric oxide production in mouse RAW264.7 cells at 1.5625 uM after 24 hrs by Griess reaction relative to control. Type of series: functional.
The test system of series [8] is RAW264.7. The experiment in a line: Inhibition of LPS-induced nitric oxide production in mouse RAW264.7 cells at 6.25 uM after 24 hrs by Griess reaction relative to control. In kind it is functional.
The test system of series [9] is RAW264.7. The experiment in a line: Cytotoxicity against mouse RAW264.7 cells at 6.25 uM after 24 hrs by MTT assay. In kind it is cell-based. As to conditions: raw264.7, 24 h.
Series [10] has as its system RAW264.7. In words: Inhibition of LPS-induced nitric oxide production in mouse RAW264.7 cells at 3.125 uM after 24 hrs by Griess reaction relative to control. In kind it is functional.
Series [11] concerns RAW264.7. In words: Inhibition of LPS-induced iNOS mRNA expression in mouse RAW264.7 cells at 100 uM by RT-PCR analysis. Type of series: functional, cell-based.

Calls of active or inactive are those of the source. The rule behind the calls is not given here.

Broadly, the inhibition is the drop in the measured response relative to a control, in per cent. By IC50 is commonly meant the point on the concentration scale where inhibition reaches its midpoint. A low value points to higher potency. Turning to `COc1ccc2c(c1O)[C@]13CCCC[C@@H]1[C@H](C2)N(C)CC3`, in the series on RAW264.7 [1], the inhibition result is “Dose-dependent effect”. Further, the IC50 with RAW264.7 [2] (Mus musculus, RAW264.7, 24 h) was greater than 100 µM. In addition, the inhibition at 100 µM in the series with RAW264.7 [3] was 30.6%. The inhibition at 50 µM with RAW264.7 [4] was found to be 28.1%. Moreover, the inhibition at 25 µM with RAW264.7 [5] is 12.1%.

As for `COc1ccc2c(c1O)[C@@]13CCN(C)[C@@H](C2)[C@H]1C[C@@H](OC)[C@H](NS(C)(=O)=O)C3`, the IC50 in the series on RAW264.7 [2] (Mus musculus, RAW264.7, 24 h) was greater than 100 µM. Moreover, the inhibition at 100 µM in the series on RAW264.7 [3] was -3.5%. In addition, the inhibition at 50 µM in the series with RAW264.7 [4] is -3.7%. For the same molecule, the inhibition at 25 µM in the series with RAW264.7 [5] was -2.3%.

In the series on RAW264.7 [2] (Mus musculus, RAW264.7, 24 h), `COC1=C[C@@H]2[C@@H]3Cc4ccc(OC)c(O)c4[C@]2(CCN3)CC1=O` registered an IC50 greater than 100 µM. Further, the inhibition at 100 µM in the series with RAW264.7 [3] amounted to 10.7%. In addition, the inhibition at 50 µM in the series with RAW264.7 [4] was -0.8%. For the same molecule, in the series with RAW264.7 [5], the inhibition at 25 µM is -6.1%.

Take `COc1ccc2c(c1O)[C@@]13CCN(C)[C@@H](C2)[C@H]1C[C@@H](OC)[C@H](NS(=O)(=O)c1ccc(C)cc1)C3`: the inhibition result in the series on RAW264.7 [1] is “Dose-dependent effect”. The same molecule registered an IC50 in the series with RAW264.7 [2] (Mus musculus, RAW264.7, 24 h) greater than 100 µM. Further, in the series with RAW264.7 [3], the inhibition at 100 µM was found to be 39.8%. For the same molecule, in the series on RAW264.7 [4], the inhibition at 50 µM turned out to be 30%. Also, in the series on RAW264.7 [5], the inhibition at 25 µM amounted to 10.9%.

On to `COc1ccc2c(c1O)[C@@]13CCN(C)[C@@H](C2)[C@H]1Cc1nc2ccccc2nc1C3`, for which, in the series with RAW264.7 [6] (Mus musculus, RAW264.7, 24 h), the inhibition at 12.5 µM is 1.3%. In the series with RAW264.7 [2] (Mus musculus, RAW264.7, 24 h), this molecule returned an IC50 of 57.9 µM. Further, in the series on RAW264.7 [5], the inhibition at 25 µM stood at 11.4%.

`COc1cc(-c2cc(OC)c(O)c3c2C[C@H]2[C@H]4Cc5nc6ccccc6nc5C[C@@]34CCN2C)c2c(c1O)[C@@]13CCN(C)[C@@H](C2)[C@H]1Cc1nc2ccccc2nc1C3` yielded a 50% inhibitory concentration (IC50) with RAW264.7 [2] (Mus musculus, RAW264.7, 24 h) of 6.3 µM. In the series with RAW264.7 [7] (Mus musculus, RAW264.7, 24 h), the inhibition at 1.5625 µM amounted to 8.4%.

With `COC1=C[C@@H]2[C@@H]3Cc4c(-c5cc(OC)c(O)c6c5C[C@H]5[C@H]7C=C(OC)C(=O)C[C@@]67CCN5C)cc(OC)c(O)c4[C@]2(CCN3C)CC1=O` (stereo in doubt; 1a) [listing 1 of 2 here], the IC50 in the series with RAW264.7 [2] (Mus musculus, RAW264.7, 24 h) was greater than 100 µM. Also, the “inhibition (INH)” value in the series on RAW264.7 [3] is 23.7%; in the series on RAW264.7 [4], 15%; with RAW264.7 [5], -2.9%.

For `COC1=C[C@@H]2[C@@H]3Cc4c(-c5cc(OC)c(O)c6c5C[C@H]5[C@H]7C=C(OC)C(=O)C[C@@]67CCN5C)cc(OC)c(O)c4[C@]2(CCN3C)CC1=O` (stereo in doubt; 1a) [listing 2 of 2 here], the inhibition result in the series with RAW264.7 [1] is “Dose-dependent effect”.

In the case of `COC1=C[C@@H]2[C@@H]3Cc4c(-c5cc(OC)c(O)c6c5C[C@H]5[C@H]7C=C(OC)C(=O)C[C@@]67CCN5C)cc(OC)c(O)c4[C@]2(CCN3C)CC1=O` (stereo in doubt; 1b), the “inhibition (INH)” value in the series with RAW264.7 [3] is -2.1%; in the series on RAW264.7 [4], 6.6%; in the series with RAW264.7 [5] it was -1.3%.

As for `COc1cc(-c2cc(OC)c(O)c3c2C[C@H]2[C@H]4CCCC[C@@]34CCN2C)c2c(c1O)[C@]13CCCC[C@@H]1[C@H](C2)N(C)CC3` (stereo in doubt; 2a) [listing 1 of 2 here], the IC50 in the series on RAW264.7 [2] (Mus musculus, RAW264.7, 24 h) stood at 9.5 µM. Further, the “inhibition (INH)” value in the series on RAW264.7 [8] is reported as 41.6%; in the series with RAW264.7 [7], 2.7%; in the series on RAW264.7 [10] it was 17%. Moreover, the Activity result in the series on RAW264.7 [9] is given as “Non-toxic”.

Regarding `COc1cc(-c2cc(OC)c(O)c3c2C[C@H]2[C@H]4CCCC[C@@]34CCN2C)c2c(c1O)[C@]13CCCC[C@@H]1[C@H](C2)N(C)CC3` (stereo in doubt; 2a) [listing 2 of 2 here], the inhibition result with RAW264.7 [1] was “Dose-dependent effect”.

`COc1cc(-c2cc(OC)c(O)c3c2C[C@H]2[C@H]4CCCC[C@@]34CCN2C)c2c(c1O)[C@]13CCCC[C@@H]1[C@H](C2)N(C)CC3` (stereo in doubt; 2b) [listing 1 of 2 here] had an IC50 in the series on RAW264.7 [2] (raw264.7) of 14.2 µM. Moreover, the inhibition at 6.25 µM with RAW264.7 [8] (Mus musculus, RAW264.7, 24 h) is 35.2%. The “inhibition (INH)” value in the series on RAW264.7 [7] is on record as -4.4%. Besides, the inhibition at 3.125 µM in the series on RAW264.7 [10] (Mus musculus, RAW264.7, 24 h) was 16.9%.

Regarding `COc1cc(-c2cc(OC)c(O)c3c2C[C@H]2[C@H]4CCCC[C@@]34CCN2C)c2c(c1O)[C@]13CCCC[C@@H]1[C@H](C2)N(C)CC3` (stereo in doubt; 2b) [listing 2 of 2 here], in the series on RAW264.7 [1], the inhibition result is “Dose-dependent effect”.

In the case of `COC1=C[C@@H]2[C@@H]3Cc4c(-c5cc(OC)c(O)c6c5C[C@@H]5NCC[C@]67CC(=O)C(OC)=C[C@H]57)cc(OC)c(O)c4[C@]2(CCN3)CC1=O` (stereo in doubt; 3a), the IC50 in the series on RAW264.7 [2] (Mus musculus, RAW264.7, 24 h) was greater than 100 µM. Also, the “inhibition (INH)” value in the series with RAW264.7 [3] was 16%; in the series with RAW264.7 [4], -12.6%; in the series with RAW264.7 [5] it was -9.3%.

Turning to `COC1=C[C@@H]2[C@@H]3Cc4c(-c5cc(OC)c(O)c6c5C[C@@H]5NCC[C@]67CC(=O)C(OC)=C[C@H]57)cc(OC)c(O)c4[C@]2(CCN3)CC1=O` (stereo in doubt; 3b), the figures for the “inhibition (INH)” value in the series on RAW264.7 [3], in the series with RAW264.7 [4] and with RAW264.7 [5] were -7.1%, -11% and -11.6%, respectively.

As for `COc1cc(-c2cc(OC)c(O)c3c2C[C@H]2[C@H]4C[C@@H](OC)[C@H](NS(=O)(=O)c5ccc(C)cc5)C[C@@]34CCN2C)c2c(c1O)[C@@]13CCN(C)[C@@H](C2)[C@H]1C[C@@H](OC)[C@H](NS(=O)(=O)c1ccc(C)cc1)C3` (stereo in doubt; 4a), the results for the “inhibition (INH)” value with RAW264.7 [6] and in the series on RAW264.7 [5] were 2.6% and 4.9%, respectively. Moreover, the IC50 in the series with RAW264.7 [2] (Mus musculus, RAW264.7, 24 h) is 43.5 µM.

On to `COc1cc(-c2cc(OC)c(O)c3c2C[C@H]2[C@H]4C[C@@H](OC)[C@H](NS(=O)(=O)c5ccc(C)cc5)C[C@@]34CCN2C)c2c(c1O)[C@@]13CCN(C)[C@@H](C2)[C@H]1C[C@@H](OC)[C@H](NS(=O)(=O)c1ccc(C)cc1)C3` (stereo in doubt; 4b), for which the “inhibition (INH)” value in the series on RAW264.7 [6] is recorded as -4%; in the series on RAW264.7 [5] it was -2.9%. The IC50 in the series on RAW264.7 [2] (raw264.7) stood at 72.9 µM. In the series on RAW264.7 [4], the inhibition at 50 µM is -2.2%.

The molecule `COc1cc(-c2cc(OC)c(O)c3c2C[C@H]2[C@H]4C[C@@H](OC)[C@H](NS(C)(=O)=O)C[C@@]34CCN2C)c2c(c1O)[C@@]13CCN(C)[C@@H](C2)[C@H]1C[C@@H](OC)[C@H](NS(C)(=O)=O)C3` (stereo in doubt; 5a) gave an IC50 with RAW264.7 [2] (Mus musculus, RAW264.7, 24 h) greater than 100 µM. Moreover, the inhibition at 100 µM in the series on RAW264.7 [3] worked out at 9.3%. Also, the “inhibition (INH)” value was 0.2% with RAW264.7 [4] and -0.2% with RAW264.7 [5].

Take `COc1cc(-c2cc(OC)c(O)c3c2C[C@H]2[C@H]4C[C@@H](OC)[C@H](NS(C)(=O)=O)C[C@@]34CCN2C)c2c(c1O)[C@@]13CCN(C)[C@@H](C2)[C@H]1C[C@@H](OC)[C@H](NS(C)(=O)=O)C3` (stereo in doubt; 5b): the “inhibition (INH)” value is 9.9% with RAW264.7 [3], 8.6% in the series with RAW264.7 [4] and -8.4% in the series on RAW264.7 [5].

In the case of `N=C(N)NN` [PIMAGEDINE], in the series on RAW264.7 [3], the inhibition at 100 µM was determined as 86%. Besides, in the series with RAW264.7 [4], the inhibition at 50 µM amounted to 74.9%. In the series with RAW264.7 [5], the inhibition at 25 µM was 52.5%.

Take `COC1=C[C@@H]2[C@@H]3Cc4ccc(OC)c(O)c4[C@]2(CCN3C)CC1=O` [SINOMENINE]: in the series with RAW264.7 [2] (Mus musculus, RAW264.7, 24 h), the IC50 was greater than 100 µM. For the same molecule, the inhibition at 100 µM with RAW264.7 [3] came to 12.8%. In addition, in the series with RAW264.7 [11], the inhibition entry is “Active”. In the series with RAW264.7 [4], the inhibition at 50 µM came out at 0.1%. In addition, in the series on RAW264.7 [5], the inhibition at 25 µM was -3%.
